From ChEMBL document CHEMBL3124804, “Discovery of a cyclopentylamine as an orally active dual NK1 receptor antagonist-serotonin reuptake transporter inhibitor” (Bioorg Med Chem Lett, 2014)
pIC50: −log10 of the molar value. Activity calls are given as the source filed them. The rule behind the calls is not given here.

Assays:
Substance-P receptor = Substance-P receptor (Homo sapiens, UniProt P25103); experiment: Antagonist activity at human NK1 receptor
[1] = molecular target: Sodium-dependent serotonin transporter (Homo sapiens, UniProt P31645); experiment: Inhibition of human SERT
Sequence of Sodium-dependent serotonin transporter (P31645 whole entry): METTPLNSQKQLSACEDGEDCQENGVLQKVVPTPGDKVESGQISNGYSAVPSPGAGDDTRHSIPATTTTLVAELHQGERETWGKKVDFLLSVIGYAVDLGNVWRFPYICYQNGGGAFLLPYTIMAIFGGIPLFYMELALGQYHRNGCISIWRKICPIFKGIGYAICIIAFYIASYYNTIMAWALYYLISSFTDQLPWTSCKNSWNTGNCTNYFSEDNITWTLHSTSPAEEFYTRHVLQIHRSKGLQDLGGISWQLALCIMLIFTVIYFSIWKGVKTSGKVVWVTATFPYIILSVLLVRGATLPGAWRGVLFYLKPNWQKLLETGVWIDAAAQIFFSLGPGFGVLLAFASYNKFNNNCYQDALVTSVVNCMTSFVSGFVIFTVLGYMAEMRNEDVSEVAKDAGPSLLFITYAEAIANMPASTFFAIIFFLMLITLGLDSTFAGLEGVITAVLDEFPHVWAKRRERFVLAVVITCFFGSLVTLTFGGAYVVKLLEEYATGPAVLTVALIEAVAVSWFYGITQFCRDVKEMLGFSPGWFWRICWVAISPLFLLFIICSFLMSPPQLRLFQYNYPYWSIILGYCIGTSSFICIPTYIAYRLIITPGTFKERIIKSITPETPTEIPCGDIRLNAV

Gerbillinae [2] = experiment: Neurotoxicity in gerbil assessed as increase in spontaneous locomotor activity at 30 mg/kg, po relative to vehicle-treated control; type: toxicity, organism-based; design: dose 30 mg/kg, route oral; details: in vivo
[3] = Drug uptake in gerbil brain at 30 mg/kg, po; type: ADME, organism-based; design: dose 30 mg/kg, route oral; details: gerbillinae, in vivo, read-out: Drug uptake
[4] = Plasma concentration in gerbil at 30 mg/kg, po; type: ADME, organism-based; design: dose 30 mg/kg, route oral; details: gerbillinae, in vivo
Gerbillinae [5] = experiment: Antidepressant activity in gerbil assessed as reduction of immobility time at 3 to 10 mg/kg, po administered 30 mins prior to testing measured over 6 mins by forced swimming test relative to vehicle-treated control; type: functional, organism-based
Gerbillinae [6] = experiment: Antidepressant activity in gerbil assessed as reduction of immobility time at 30 mg/kg, po administered 30 mins prior to testing measured over 6 mins by forced swimming test relative to vehicle-treated control; type: functional, organism-based; design: dose 30 mg/kg

Sequence of Substance-P receptor (P25103 whole entry): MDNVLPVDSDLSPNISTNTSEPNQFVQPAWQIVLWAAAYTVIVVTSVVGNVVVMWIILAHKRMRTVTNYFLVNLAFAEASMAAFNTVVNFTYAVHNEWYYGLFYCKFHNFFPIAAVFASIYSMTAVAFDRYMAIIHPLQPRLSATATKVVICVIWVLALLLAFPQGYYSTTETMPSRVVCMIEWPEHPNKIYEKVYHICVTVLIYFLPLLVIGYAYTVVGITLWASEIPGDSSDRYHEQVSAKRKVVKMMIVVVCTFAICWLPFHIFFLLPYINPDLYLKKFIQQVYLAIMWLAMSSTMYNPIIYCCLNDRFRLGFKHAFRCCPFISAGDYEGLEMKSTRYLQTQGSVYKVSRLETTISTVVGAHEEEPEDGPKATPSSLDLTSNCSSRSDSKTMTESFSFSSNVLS

| SMILES | pIC50 (Substance-P receptor) | pIC50 [1] | further results |
| --- | --- | --- | --- |
| CCN(CC)C1CCC(COCc2cc(C(F)(F)F)cc(C(F)(F)F)c2)(c2ccccc2)CC1 (mixture of isomers) | 7.42 | 6.55 | – |
| FC(F)(F)c1cc(COCC2(c3ccccc3)CCC(N3CCOCC3)CC2)cc(C(F)(F)F)c1 (mixture of isomers) | 6.46 | < 6.00 | – |
| FC(F)(F)c1cc(COCC2(c3ccccc3)CCC(N3CCOCC3)C2)cc(C(F)(F)F)c1 (mixture of isomers) | 7.35 | < 6.00 | – |
| CC(C)N(C(C)C)C1CCC(COCc2cc(C(F)(F)F)cc(C(F)(F)F)c2)(c2ccccc2)C1 (mixture of isomers) | 6.33 | < 6.00 | – |
| FC(F)(F)c1cc(COCC2(c3ccccc3)CCC(N3CCCCC3)CC2)cc(C(F)(F)F)c1 (mixture of isomers) | 7.03 | 6.01 | – |
| COCCN(C)C1CCC(COCc2cc(C(F)(F)F)cc(C(F)(F)F)c2)(c2ccccc2)C1 (mixture of isomers) | 7.70 | < 6.00 | – |
| FC(F)(F)c1cc(COCC2(c3ccccc3)CCC(N3CCCCC3)C2)cc(C(F)(F)F)c1 (mixture of isomers) | 8.33 | < 6.00 | – |
| CN1CCN(C2CCC(COCc3cc(C(F)(F)F)cc(C(F)(F)F)c3)(c3ccccc3)CC2)CC1 (mixture of isomers) | 6.92 | 6.28 | – |
| FC(F)(F)c1cc(COCC2(c3ccccc3)CCC(N3CCCC3)CC2)cc(C(F)(F)F)c1 (mixture of isomers) | 6.92 | < 6.00 | – |
| FC(F)(F)c1cc(COCC2(c3ccccc3)CCC(NC3CC3)CC2)cc(C(F)(F)F)c1 (mixture of isomers) | 7.13 | 6.17 | – |
| CCNC1CCC(COCc2cc(C(F)(F)F)cc(C(F)(F)F)c2)(c2ccccc2)CC1 (mixture of isomers) | 7.85 | 6.82 | – |

The next lines start with results.

| pIC50 (Substance-P receptor) | pIC50 [1] | SMILES | further results |
| --- | --- | --- | --- |
| 8.12 | 8.33 | N[C@H]1CC[C@@](COCc2cc(C(F)(F)F)cc(C(F)(F)F)c2)(c2ccccc2)C1 | Activity (Gerbillinae [2]): Non-toxic; concentration [3]: 7.4 µM; concentration [4]: 300 nM; Activity (Gerbillinae [5]): inactive; Activity (Gerbillinae [6]): Active |
| 7.32 | 6.60 | CN(C)C1CCC(COCc2cc(C(F)(F)F)cc(C(F)(F)F)c2)(c2ccccc2)CC1 (mixture of isomers) | – |
| 7.80 | 6.28 | FC(F)(F)c1cc(COCC2(c3ccccc3)CCC(NC3CC3)C2)cc(C(F)(F)F)c1 (mixture of isomers) | – |
| 7.51 | 6.68 | N[C@@H]1CC[C@](COCc2cc(C(F)(F)F)cc(C(F)(F)F)c2)(c2ccccc2)C1 | – |
| 7.72 | 6.46 | N[C@H]1CC[C@](COCc2cc(C(F)(F)F)cc(C(F)(F)F)c2)(c2ccccc2)C1 | – |
| 7.85 | < 6.00 | FC(F)(F)c1cc(COCC2(c3ccccc3)CCC(N3CCCC3)C2)cc(C(F)(F)F)c1 (mixture of isomers) | – |
| 7.96 | 6.89 | N[C@@H]1CC[C@@](COCc2cc(C(F)(F)F)cc(C(F)(F)F)c2)(c2ccccc2)C1 | – |
| 8.10 | 7.24 | CN(C)C1CCC(COCc2cc(C(F)(F)F)cc(C(F)(F)F)c2)(c2ccccc2)C1 (mixture of isomers) | – |
| 7.80 | 6.72 | CNC1CCC(COCc2cc(C(F)(F)F)cc(C(F)(F)F)c2)(c2ccccc2)CC1 (mixture of isomers) | – |
